# Reference: US20230339937A1, “CONDENSED RING COMPOUNDS THAT INHIBIT H-PGDS” (SATO PHARMACEUTICAL CO., LTD., priority 2020, published 2023)
# Where a name gives a salt, the structure may show the parent alone.
# Biological target: T1, Recombinant human H-PGDS (Homo sapiens, UniProt O60760)
# T1 construct: made in house; host or cells: E. coli
# Experiment: H-PGDS inhibitory activity (prostaglandin D2 production from prostaglandin H2, measured by LC-MS/MS)
# Format: biochemical
# Conditions: recombinant human H-PGDS 1.0 nM expressed in E. coli; prostaglandin H2 25 μM; preincubated 15 minutes on ice, reacted on ice for 1 minute; concentration that inhibits prostaglandin D2 production by 50%
# Outline: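 PGD2 formed from 25 µM prostaglandin H2 during a 1-min on-ice reaction was measured by LC-MS/MS after an FeCl2/citric acid stop. The enzyme was 1.0 nM E. coli-expressed human H-PGDS in Tris-HCl pH 8.0 buffer with MgCl2, reduced glutathione and γ-globulin, preincubated with compound for 15 min on ice. Production was normalised to DMSO controls minus the no-enzyme background.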
# T1 sequence (O60760 whole entry): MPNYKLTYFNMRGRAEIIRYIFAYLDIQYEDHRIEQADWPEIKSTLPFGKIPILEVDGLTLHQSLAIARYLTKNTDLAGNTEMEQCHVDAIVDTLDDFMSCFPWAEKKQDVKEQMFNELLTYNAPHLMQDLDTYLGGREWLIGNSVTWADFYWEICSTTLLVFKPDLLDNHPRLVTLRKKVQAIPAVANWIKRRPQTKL
row,IC50 [nM],SMILES
1,1.3,"NC(=O)c1ccnc(N2CCC(NC(=O)c3ccc(-c4nccc5occc45)cc3)CC2)n1 [Example 175, 2-{4-[4-(furo[3,2-c]pyridin-4-yl)benzamide]piperidin-1-yl}pyrimidine-4-carboxamide]"
2,1.5,"CCC(O)[C@H]1CC[C@H](NC(=O)c2ccc(-c3nccc4occc34)cc2)CC1 (stereo partly drawn) [Example 308, 4-(furo[3,2-c]pyridin-4-yl)-N-[trans-4-(1-hydroxypropyl)cyclohexyl]benzamide]"
3,1.8,"CC(C)(O)[C@H]1CC[C@H](NC(=O)c2ccc(-c3nc(Cl)cc4occc34)cc2)CC1 [Example 312, 4-(6-chlorofuro[3,2-c]pyridin-4-yl)-N-[trans-4-(2-hydroxypropan-2-yl)cyclohexyl]benzamide]"
4,1.1,"O=C(N[C@@H]1CN(c2ncc(CO)cn2)C[C@@H]1F)c1ccc(-c2nccc3occc23)cc1 [Example 204, N-{(3R,4S)-4-fluoro-1-[5-(hydroxymethyl)pyrimidin-2-yl]pyrrolidin-3-yl}-4-(furo[3,2-c]pyridin-4-yl)benzamide]"
5,1.9,"CC(C)[C@]1(O)CC[C@@H](NC(=O)c2ccc(-c3nccc4occc34)cc2)CC1 [Example 292, 4-(furo[3,2-c]pyridin-4-yl)-N-(cis-4-hydroxy-4-isopropylcyclohexyl)benzamide]"
6,1.3,"O=C(N[C@@H]1C[C@H]2C[C@@H](O)C[C@H]2C1)c1ccc(-c2nccc3occc23)cc1 [Example 282, 4-(furo[3,2-c]pyridin-4-yl)-N-[(2r,3aR,5r,6aS)-5-hydroxyoctahydropentalen-2-yl]benzamide]"
7,11,"O=C(NCC1CCOCC1)c1ccc(-c2nccc3occc23)cc1 [Example 82, 4-(furo[3,2-c]pyridin-4-yl)-N-[(tetrahydro-2H-pyran-4-yl)methyl] benzamide]"
8,3.4,"O=C(NC1CCNCC1)c1ccc(-c2nccc3occc23)cc1 [Example 142, 4-(furo[3,2-c]pyridin-4-yl)-N-(piperidin-4-yl)benzamide]"
9,107,"CC(C)N(CCNC(=O)c1ccc(-c2nccc3occc23)cc1)C(C)C [Example 98, N-[2-(diisopropylamino)ethyl]-4-(furo[3,2-c]pyridin-4-yl)benzamide dihydrochloride]"
10,1.1,"Cc1nn(C)cc1CNC(=O)c1ccc(-c2nccc3[nH]ccc23)cc1 [Example 39, N-[(1,3-dimethyl-1H-pyrazol-4-yl)methyl]-4-(1H-pyrrolo[3,2-c]pyridin-4-yl)benzamide]"
11,5.5,"O=C(Nc1ccc(F)cc1)c1ccc(-c2nccc3occc23)cc1 [Example 111, N-(4-fluorophenyl)-4-(furo[3,2-c]pyridin-4-yl)benzamide]"
12,15,"CC(O)CNC(=O)c1ccc(-c2nccc3occc23)cc1 (stereo not drawn) [Example 68, 4-(furo[3,2-c]pyridin-4-yl)-N-(2-hydroxypropyl) benzamide]"
13,21,"O=C(NC[C@H]1C[C@H](O)C1)c1ccc(-c2nccc3occc23)cc1 [Example 218, 4-(furo[3,2-c]pyridin-4-yl)-N-[(trans-3-hydroxycyclobutyl)methyl]benzamide]"
14,1.8,"O=C(NC1CCN(C(=O)CC(F)(F)F)CC1)c1ccc(-c2nccc3occc23)cc1 [Example 246, 4-(furo[3,2-c]pyridin-4-yl)-N-[1-(3,3,3-trifluoropropanoyl)piperidin-4-yl]benzamide]"
15,1.6,"O=C(N[C@@H]1CCC[C@H](O)CC1)c1ccc(-c2nccc3occc23)cc1 (relative stereo) [Example 293, 4-(furo[3,2-c]pyridin-4-yl)-N-(cis-4-hydroxycycloheptyl)benzamide]"
16,2.6,"CC(C)(O)[C@H]1CC[C@H](NC(=O)c2ccc(-c3nc(N)cc4occc34)cc2)CC1 [Example 315, 4-(6-aminofuro[3,2-c]pyridin-4-yl)-N-[trans-4-(2-hydroxypropan-2-yl)cyclohexyl]benzamide]"
17,1.1,"O=C(NC1CCN(C2COC2)CC1)c1ccc(-c2nccc3occc23)cc1 [Example 236, 4-(furo[3,2-c]pyridin-4-yl)-N-[1-(oxetan-3-yl)piperidin-4-yl]benzamide]"
18,1.3,"CC(O)[C@H]1CC[C@H](NC(=O)c2ccc(-c3nccc4occc34)cc2)CC1 (stereo partly drawn) [Example 121, 4-(furo[3,2-c]pyridin-4-yl)-N-[trans-4-(1-hydroxyethyl)cyclohexyl]benzamide]"
19,6.4,"O=C(N[C@@H]1CC[C@@H](O)C1)c1ccc(-c2nccc3occc23)cc1 (relative stereo) [Example 268, 4-(furo[3,2-c]pyridin-4-yl)-N-(trans-3-hydroxycyclopenthyl)benzamide]"
20,1.2,"Cc1cc2occc2c(-c2ccc(C(=O)NC34CCC(O)(CC3)CC4)cc2)n1 [Example 343, N-(4-hydroxybicyclo[2.2.2]octan-1-yl)-4-(6-methylfuro[3,2-c]pyridin-4-yl)benzamide]"
21,2.6,COc1cc(OC)nc(N2CCC(NC(=O)c3ccc(-c4nccc5occc45)cc3)CC2)n1 [Example 163]

row,IC50 [nM],SMILES
1,3.5,"O=C(NC1CC2(C1)CN(c1ncccn1)C2)c1ccc(-c2nccc3occc23)cc1 [Example 210, 4-(furo[3,2-c]pyridin-4-yl)-N-[2-(pyrimidin-2-yl)-2-azaspiro[3.3]heptan-6-yl]benzamide]"
2,1.1,"O=C(Nc1ccccc1)c1ccc(-c2nccc3[nH]ccc23)cc1 [Example 16, N-phenyl-4-(1H-pyrrolo[3,2-c]pyridin-4-yl)benzamide]"
3,1.7,"O=C(NCc1cccnc1)c1ccc(-c2nccc3[nH]ccc23)cc1 [Example 10, N-(pyridin-3-ylmethyl)-4-(1H-pyrrolo[3,2-c]pyridin-4-yl)benzamide]"
4,2.7,"CCCCn1nnnc1N1CCC(NC(=O)c2ccc(-c3nccc4occc34)cc2)CC1 [Example 241, N-[1-(1-butyl-1H-tetrazol-5-yl)piperidin-4-yl]-4-(furo[3,2-c]pyridin-4-yl)benzamide]"
5,2.8,"O=C(N[C@H]1CCN(c2cccc(F)n2)C1)c1ccc(-c2nccc3occc23)cc1 [Example 226, (S)—N-[1-(6-fluoropyridin-2-yl)pyrrolidin-3-yl]-4-(furo[3,2-c]pyridin-4-yl)benzamide]"
6,1.2,"Cc1cc(CNC(=O)c2ccc(-c3nccc4[nH]ccc34)cc2)[nH]n1 [Example 49, N-[(3-methyl-1H-pyrazol-5-yl)methyl]-4-(1H-pyrrolo[3,2-c]pyridin-4-yl)benzamide]"
7,25,"O=C(NC[C@H]1CC[C@@H](O)CC1)c1ccc(-c2nccc3occc23)cc1 [Example 114, 4-(furo[3,2-c]pyridin-4-yl)-N-[(cis-4-hydroxycyclohexyl)methyl]benzamide]"
8,2.7,"CNC(=O)c1ccc(-c2nccc3[nH]ccc23)cc1 [Example 1, N-methyl-4-(1H-pyrrolo[3,2-c]pyridin-4-yl)benzamide]"
9,1.2,"O=C(NC1CCN(C(=O)C2CC2)CC1)c1ccc(-c2nccc3occc23)cc1 [Example 235, N-[1-(cyclopropanecarbonyl)piperidin-4-yl]-4-(furo[3,2-c]pyridin-4-yl)benzamide]"
10,6,"O=C(NCc1cccc(Cl)c1)c1ccc(-c2nccc3occc23)cc1 [Example 69, N-(3-chlorobenzyl)-4-(furo[3,2-c]pyridin-4-yl)benzamide]"
11,2,"CC(C)(O)CO[C@H]1CC[C@H](NC(=O)c2ccc(-c3nccc4occc34)c(F)c2)CC1 [Example 329, 3-fluoro-4-(furo[3,2-c]pyridin-4-yl)-N-[trans-4-(2-hydroxy-2-methylpropoxy)cyclohexyl]benzamide]"
12,1.2,"Cc1cc2occc2c(-c2ccc(C(=O)NC3CCN(C(=O)C4CC4)CC3)cc2)n1 [Example 335, N-[1-(cyclopropanecarbonyl)piperidin-4-yl]-4-(6-methylfuro[3,2-c]pyridin-4-yl)benzamide]"
13,6.4,"O=C(NCc1cccc(CO)c1)c1ccc(-c2nccc3occc23)cc1 [Example 66, 4-(furo[3,2-c]pyridin-4-yl)-N-[3-(hydroxymethyl)benzyl]benzamide]"
14,2.4,"Cc1cc2[nH]ccc2c(-c2ccc(C(=O)N[C@H]3CC[C@H](C(C)(C)O)CC3)cc2)n1 [Example 338, N-[trans-4-(2-hydroxypropan-2-yl)cyclohexyl]-4-(6-methyl-1H-pyrrolo[3,2-c]pyridin-4-yl)benzamide]"
15,1.1,"Cn1nnnc1N1CCC(NC(=O)c2ccc(-c3nccc4occc34)c(F)c2)CC1 [Example 323, 3-fluoro-4-(furo[3,2-c]pyridin-4-yl)-N-[1-(1-methyl-1H-tetrazol-5-yl)piperidin-4-yl]benzamide]"
16,39,"O=C(NC1CC2(CNC2)C1)c1ccc(-c2nccc3occc23)cc1 [Example 209, 4-(furo[3,2-c]pyridin-4-yl)-N-(2-azaspiro[3.3]heptan-6-yl)benzamide]"
17,1.6,"CCCn1nnnc1N1CCC(NC(=O)c2ccc(-c3nccc4occc34)cc2)CC1 [Example 240, 4-(furo[3,2-c]pyridin-4-yl)-N-[1-(1-propyl-1H-tetrazol-5-yl)piperidin-4-yl]benzamide]"
18,3.7,"O=C(Nc1ccccc1)c1ccc(-c2nccc3occc23)cc1 [Example 89, 4-(furo[3,2-c]pyridin-4-yl)-N-phenylbenzamide]"
19,12,"CC1(NC(=O)c2ccc(-c3nccc4occc34)cc2)CCC(O)CC1 (stereo not drawn) [Example 276, 4-(furo[3,2-c]pyridin-4-yl)-N-(4-hydroxy-1-methylcyclohexyl)benzamide]"
20,1.6,"CC[C@]1(O)CC[C@H](NC(=O)c2ccc(-c3nccc4occc34)cc2)CC1 [Example 289, N-(trans-4-ethyl-4-hydroxycyclohexyl)-4-(furo[3,2-c]pyridin-4-yl)benzamide]"
21,50,"COCCNC(=O)c1ccc(-c2nccc3occc23)cc1 [Example 78, 4-(furo[3,2-c]pyridin-4-yl)-N-(2-methoxyethyl) benzamide]"
